Measured values from PMC9233675, “Ru(II) photocages enable precise control over enzyme activity with red light” (Nature Communications, 2022).
Numbering of substitutions follows the chain as printed. Where “and” joins values, the source holds several entries; their conditions need not be identical. Equal values may be shown once. Read-outs that look alike come from different tables or passages of the source.

Legend:
[1] = target: T1, CYP1B1 S127A (Homo sapiens, UniProt Q16678, S127A); test: In cell CYP1B1 activity assay, S127A variant; conditions: for logSI S127A: log of the ratio of IC50 values mutant vs WT (Fig. 3c)
T1 sequence (Q16678 1-543 S127A): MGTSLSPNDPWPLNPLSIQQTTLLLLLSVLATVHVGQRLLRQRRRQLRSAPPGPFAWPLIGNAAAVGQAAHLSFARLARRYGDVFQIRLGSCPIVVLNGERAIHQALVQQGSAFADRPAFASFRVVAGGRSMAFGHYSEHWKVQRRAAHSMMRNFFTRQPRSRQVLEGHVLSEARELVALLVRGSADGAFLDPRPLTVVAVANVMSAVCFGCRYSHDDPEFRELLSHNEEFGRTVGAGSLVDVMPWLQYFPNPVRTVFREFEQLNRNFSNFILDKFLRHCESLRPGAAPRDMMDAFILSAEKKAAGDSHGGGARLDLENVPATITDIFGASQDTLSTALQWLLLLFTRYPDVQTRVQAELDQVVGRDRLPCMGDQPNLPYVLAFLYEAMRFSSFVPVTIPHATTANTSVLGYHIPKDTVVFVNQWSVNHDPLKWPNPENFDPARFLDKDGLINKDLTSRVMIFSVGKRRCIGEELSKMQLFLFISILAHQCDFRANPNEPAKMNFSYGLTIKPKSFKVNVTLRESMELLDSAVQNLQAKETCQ
Excerpt: (§1) Site directed mutagenesis was used to probe the importance of specific active-site contacts identified through the structural assessment (Fig. 3a, b) and simulations. In all cases, conservative mutations were made to maintain polar or hydrophobic character and approximate size. The aromatic residues that frame the inhibitor binding site, Phe143 and Phe231, were mutated to Leu to determine the importance of the π interactions. In addition, the Ser127 residue, located in the upper corner of the active site on the B-C loop, was chosen for mutation based on the simulations. This amino acid transiently contacts the inhibitors, but also forms a hydrogen bond with Asp326 of the I-helix, and thus may impact the position of this helix with regards to the B-C loop. […] Rather than directly mutating these residues in the I-helix, neighboring residues Gln332 and Asp333 were targeted, with the hope of interrupting amino acid interactions that position the helix within the active site.
(§2) The ratio of IC50 values for the WT vs. the mutant are shown in Fig. 3c and reflects the importance of the specific contact; the log of the value is used to aid in visualization.
(§3) Cell lines were seeded onto Geltrex coated 96-well plates at 40,000 cells/well, and grown overnight in DMEM media containing 1 μg/mL tetracycline. The media was then replaced with Opti-MEM supplemented with 2% FBS and 1 μg/mL tetracycline. Compounds were serially diluted in Opti-MEM supplemented with 2% FBS and 1 μg/mL tetracycline and an equal volume of compound added to the cells (n = 3). Following a 1 h incubation, resorufin ethyl ether (REE; for CYP1B1 and 1A1) or dibenzylfluorescein (DBF; for 19A1) was added to the cells for a total concentration of 5 μM for REE and 1 μM for DBF. […] Dose–response curves were generated in Prism and normalized using the no-compound control (set as 100% activity) and the no-cell control (set as 0% activity; this value in the raw data reflects the background fluorescence of the dye alone).

[2] = target: T2, CYP1B1 Q332E (Homo sapiens, UniProt Q16678, Q332E); test: In cell CYP1B1 activity assay, Q332E variant; conditions: for logSI Q332E: log of the ratio of IC50 values mutant vs WT (Fig. 3c)
T2 sequence (Q16678 1-543 Q332E): T1 sequence (Q16678 1-543 S127A) with A127S, Q332E
Excerpt: as §1, §2, §3

[3] = target: T3, CYP1B1 D333N (Homo sapiens, UniProt Q16678, D333N); test: In cell CYP1B1 activity assay, D333N variant; conditions: for logSI D333N: log of the ratio of IC50 values mutant vs WT (Fig. 3c)
T3 sequence (Q16678 1-543 D333N): T1 sequence (Q16678 1-543 S127A) with A127S, D333N
Excerpt: as §1, §2, §3

[4] = target: T4, CYP1B1 (Homo sapiens, UniProt Q16678); test: In cell activity assay for CYP1B1 (7-ethoxyresorufin conversion, HEK293 T-Rex cells); conditions: for % Enzyme Activity: dark; for % Enzyme Activity red light: 660 nm light (58.7 J/cm2); for IC50: n = 3
T4 sequence (Q16678 1-543): T1 sequence (Q16678 1-543 S127A) with A127S
Excerpt: To rigorously assess the activity of inhibitors under biologically relevant conditions, an assay was developed for screening of CYP1B1 activity in live cells.
A stable HEK cell line was created with CYP1B1 expression under the control of tetracycline to facilitate regulated and titratable expression (see the Methods section for more details). […] The fluorogenic substrate, 7-ethoxyresorufin (REE), is a validated substrate for both CYPs and was used in both assays. Cytochrome P450 oxidoreductase (POR) is the required reductase partner for CYPs, and was also overexpressed in these systems to improve catalytic efficiency and the resulting signal for the assay.
Cell lines were generated in the HEK293 T-Rex cell line. Following transfection, cells were selected with 500 μg/mL Zeocin, and 7.5 μg/mL Blasticidin to create a stable pool. Inducible expression of CYP and POR was confirmed by immunoblot. […] The lines were maintained with 250 μg/mL Zeocin and 7.5 μg/mL Blasticidin to ensure continued selective pressure.
as §3
For the light-activated compounds, the experiment was modified as follows: Cells were seeded and grown overnight as described above. Media was replaced with L-15 containing 1 μg/mL tetracycline; L-15 media was used in place of opti-MEM™ to maintain CO2 outside the incubator, and to prevent cellular damage from light. Compounds were serially diluted in L-15 with 1 μg/mL tetracycline and added to the cells followed by a 1 h incubation. […] REE or DBF was added as described above.

[5] = read-out: IC50 CYP1B1 Dark, Dark, conversion of 7-ethoxyresorufin (REE)
[6] = read-out: IC50 CYP1B1 Light, Light: 660 nm, 58.7 J/cm^2, REE

SMILES | logSI S127A [1] | logSI Q332E [2] | logSI D333N [3] | % Enzyme Activity ([4]; CYP1B1, Log Conc 0.39794) | % Enzyme Activity ([4]; CYP1B1, Log Conc 1) | % Enzyme Activity ([4]; CYP1B1, Log Conc -0.20412) | % Enzyme Activity ([4]; CYP1B1, Log Conc -0.80618) | % Enzyme Activity ([4]; CYP1B1, Log Conc -1.40824) | % Enzyme Activity ([4]; CYP1B1, Log Conc -2.0103) | % Enzyme Activity ([4]; CYP1B1, Log Conc -2.61236) | % Enzyme Activity ([4]; CYP1B1, Log Conc -3.21442) | % Enzyme Activity ([4]; CYP1B1, Log Conc -3.81648) | % Enzyme Activity ([4]; CYP1B1, Log Conc -4.41854) | % Enzyme Activity ([4]; CYP1B1, Log Conc -5.0206) | % Enzyme Activity ([4]; CYP1B1, Log Conc -5.62266) | IC50 [4, 5] [µM] | IC50 [4, 6] [µM] | other results
COc1ccc(C=Cc2ccncc2)c(OC)c1 [Compound 3] | 2.2 | 2.2 | 3.4 | -5.843% and -5.409% and -4.402% | -2.892% and -0.02892% and -1.938% | -3.135% and -2.441% and -3.396% | 0.2661% and -0.4628% and 0.4396% | 4.865% and 3.164% and 4.917% | 14.3229% and 13.9758% and 14.3403% | 26.2625% and 28.9697% and 28.1888% | 46.5321% and 40.302% and 39.9202% | 56.0248% and 55.8165% and 54.8794% | 73.8474% and 69.3527% and 65.1356% | 73.3268% and 74.7498% and 84.3119% | 93.7872% and 77.0753% and 77.7868% | – | – | % Enzyme Activity ([4]; CYP1B1, Log Conc -6.22472): 92.9716% and 93.6311% and 94.2558%; % Enzyme Activity ([4]; CYP1B1, Log Conc -6.82678): 109.545% and 110.274% and 80.1816%
COc1ccc(/C=C/c2cc[n+]([Ru-4]345([n+]6ccccc6-c6cccc([n+]63)-c3cccc[n+]34)[n+]3c(cc(C(=O)[O-])c4ccccc43)-c3cc(C(=O)[O-])c4ccccc4[n+]35)cc2)c(OC)c1 [Compound 6] | – | – | – | 37.9328% and 31.3874% | -5.282% and -4.5489% | 83.1691% and 81.3495% | 99.722% and 104.043% | 109.148% and 104.422% | 132.424% and 133.005% | 99.1913% and 124.791% | 127.496% and 122.416% | 106.293% and 106.621% | 105.939% and 103.083% | 100.606% and 105.459% | 101.365% and 96.184% | 1.9 | 0.0003 | % Enzyme Activity red light ([4]; CYP1B1, Log Conc 0.39794): -2.704% and -2.565%; % Enzyme Activity red light ([4]; CYP1B1, Log Conc 1): -2.451% and -1.971%; % Enzyme Activity red light ([4]; CYP1B1, Log Conc -0.20412): -2.413% and -1.554%; % Enzyme Activity red light ([4]; CYP1B1, Log Conc -0.80618): -1.314% and -2.085%; % Enzyme Activity red light ([4]; CYP1B1, Log Conc -1.40824): -2.274% and -3.677%; % Enzyme Activity red light ([4]; CYP1B1, Log Conc -2.0103): 1.567% and 0.556%; % Enzyme Activity red light ([4]; CYP1B1, Log Conc -2.61236): 27.0407% and 26.6869%; % Enzyme Activity red light ([4]; CYP1B1, Log Conc -3.21442): 48.2689% and 41.5972%; % Enzyme Activity red light ([4]; CYP1B1, Log Conc -3.81648): 59.7422% and 63.5835%; % Enzyme Activity red light ([4]; CYP1B1, Log Conc -4.41854): 78.0389% and 65.5042%; % Enzyme Activity red light ([4]; CYP1B1, Log Conc -5.0206): 106.495% and 94.3139%; % Enzyme Activity red light ([4]; CYP1B1, Log Conc -5.62266): 87.0104% and 112.181%
COc1cc(/C=C/c2ccc(OC)cc2OC)cc(OC)c1 [Compound 1, reference compound] | -1.5 | 0.6 | 2 | – | – | – | – | – | – | – | – | – | – | – | – | – | – | –
COc1ccc(/C=C/c2cc[n+]([Ru-4]345([n+]6ccccc6-c6cccc([n+]63)-c3cccc[n+]34)[n+]3c(cc(C(=O)[O-])c4ccccc43)-c3cc(C(=O)[O-])c4ccccc4[n+]35)cn2)c(OC)c1 [Compound 5] | – | – | – | – | – | – | – | – | – | – | – | – | – | – | – | 1.73 | 0.017 | –
COc1ccc(/C=C/c2ccncn2)c(OC)c1 [Compound 2] | 1.7 | 0.7 | 1.8 | -2.174% and -0.1456% and -1.116% | -3.921% and -4.348% and -1.514% | 3.833% and 3.484% and 3.455% | 23.2531% and 22.7484% and 23.8839% | 62.2283% and 59.9476% and 62.7038% | 95.9724% and 93.1289% and 92.7213% | 93.2065% and 104.319% and 107.88% | 101.359% and 108.531% and 103.62% | 105.357% and 94.6429% | – | – | – | – | – | IC50 [1]: 3.74 µM; Ratio IC50 (mutant)/ IC50 (WT), S127A [1]: 50; IC50 [2]: 0.402 µM; Ratio IC50 (mutant)/ IC50 (WT), Q332E [2]: 5.3; IC50 [3]: 5 µM; Ratio IC50 (mutant)/ IC50 (WT), D333N [3]: 66; p IC50(uM) ([4]; CYP1B1, negative log of the IC50 in μM): 1.119
